In patent publication US20110224210A1, “NOVEL BIS-AMIDES AS ANTI-MALARIAL AGENTS” (priority 2008, published 2011):

test system: P. falciparum K1 (strain resistant to chloroquine and pyrimethamine), erythrocytic stages; assay: Plasmodium falciparum in vitro assay, [3H] hypoxanthine incorporation; assay type: cell-based; conditions: Plasmodium falciparum, K1, P. falciparum strain K1; [3H] hypoxanthine incorporation; read-out: IC50 (nM) on K1
Method: In Vitro Antimalarial Activity: Plasmodium falciparum In Vitro Assay
In vitro activity against erythrocytic stages of P. falciparum is determined using a [^3H] hypoxanthine incorporation assay. One strain resistant to chloroquine and pyrimethamine (P. falciparum K1) is used in the assays, and all test compounds are compared for activity with the standard drugs chloroquine (sigma C6628) and artemisinin (sigma-36, 159-3). Compounds are diluted in DMSO to 1 mM and added to parasite cultures incubated in RPMI 1640 medium without hypoxanthine, supplemented with HEPES (5.94 g/L), NaHCO3 (2.1 g/L), neomycin (100 U/mL), Albumax (5 g/L) and washed human red cells at 2.5% haematocrit (0.3% parasitaemia). Seven serial doubling dilutions of each compound are prepared in 96-well microtitre plates and incubated in a humidifying atmosphere at 37° C.; 4% CO2, 3% O2, 93% N2.
After 48 h, 50 μl of [3H] hypoxanthine (0.5 μCi) is added to each well of a plate. The plates are incubated for a further 24 h under the same conditions. The plates are then harvested with a Betaplate cell harvester (Wallac) and washed with distilled water. The dried filters are inserted into a plastic foil with 10 mL of scintillation fluid, and counted in a Betaplate liquid scintillation counter. IC50 values are calculated from sigmoidal inhibition curves using Microsoft Excel.

Row | IC50 | SMILES
1 | 80 nM | CN(Cc1ccc(N2CCCC2=O)cc1)C(=O)[C@H](Cc1ccccc1)N(Cc1ccc(N2CCOCC2)cc1)C(=O)C=Cc1ccc(C(F)(F)F)nc1 [Example 272]
2 | 49 nM | CCc1ccc(CN(C(=O)C=Cc2ccc(C)cc2)[C@@H](Cc2ccccc2)C(=O)N(C)CCOC)cc1 [Example 161, (S)-N-(4-Ethyl-benzyl)-N-{1-[(2-methoxy-ethyl)-methyl-carbamoyl]-2-phenyl-ethyl}-3-p-tolyl-acrylamide]
3 | 28 nM | COCCN(C)C(=O)[C@H](Cc1ccccc1)N(Cc1ccc(-c2cncnc2)cc1)C(=O)C=Cc1sc(C)nc1C [Example 121, (S)-3-(2,4-Dimethyl-thiazol-5-yl)-N-{1-[(2-methoxy-ethyl)-methyl-carbamoyl]-2-phenyl-ethyl}-N-(4-pyrimidin-5-yl-benzyl)-acrylamide]
4 | 116 nM | Cc1cc(C=CC(=O)N(Cc2ccc(-c3ccncc3)cc2)[C@@H](Cc2ccccc2)C(=O)N2CCC(N(C)C)CC2)n(C)n1 [Example 20, (S)-N-[1-Benzyl-2-(4-dimethylamino-piperidin-1-yl)-2-oxo-ethyl]-3-(2,5-dimethyl-2H-pyrazol-3-yl)-N-(4-pyridin-4-yl-benzyl)-acrylamide]
5 | 323 nM | CN(C)C1CCN(C(=O)[C@H](Cc2ccccc2)N(Cc2ccc(N3CCOCC3)cc2)C(=O)C=Cc2ccc(C(F)(F)F)cn2)CC1 [Example 4, (S)-N-[1-Benzyl-2-(4-dimethylamino-piperidin-1-yl)-2-oxo-ethyl]-N-(4-morpholin-4-yl-benzyl)-3-(5-trifluoromethyl-pyridin-2-yl)-acrylamide]
6 | 209 nM | COCCN(C)C(=O)[C@H](Cc1ccccc1)N(Cc1ccc(-c2ccccn2)cc1)C(=O)C=Cc1cnc(C)nc1 [Example 83, (S)-N-{1-[(2-Methoxy-ethyl)-methyl-carbamoyl]-2-phenyl-ethyl}-3-(2-methyl-pyrimidin-5-yl)-N-(4-pyridin-2-yl-benzyl)-acrylamide]
7 | 20 nM | C=CCOCCN(C)C(=O)[C@H](Cc1ccccc1)N(Cc1ccc(N2CCN(C(C)=O)CC2)cc1)C(=O)C=Cc1ccc(C(F)(F)F)cc1 [Example 212, (S)-N-[4-(4-Acetyl-piperazin-1-yl)-benzyl]-N-{1-[(2-allyloxy-ethyl)-methyl-carbamoyl]-2-phenyl-ethyl}-3-(4-trifluoromethyl-phenyl)-acrylamide]
8 | < 8 nM | COCCN(C)C(=O)[C@H](Cc1ccccc1)N(Cc1ccc(-c2cccnc2)cc1)C(=O)C=Cc1ccc(OC)nc1 [Example 135, (S)-N-{1-[(2-Methoxy-ethyl)-methyl-carbamoyl]-2-phenyl-ethyl}-3-(6-methoxy-pyridin-3-yl)-N-(4-pyridin-3-yl-benzyl)-acrylamide]
9 | 466 nM | Cc1nc(C)c(C=CC(=O)N(Cc2ccc(N3CCOCC3)cc2)[C@@H](Cc2ccccc2)C(=O)N2CCC(N(C)C)CC2)s1 [Example 2, (S)-N-[1-Benzyl-2-(4-dimethylamino-piperidin-1-yl)-2-oxo-ethyl]-3-(2,4-dimethyl-thiazol-5-yl)-N-(4-morpholin-4-yl-benzyl)-acrylamide]
10 | 72 nM | CC(=O)N1CCN(c2ccc(CN(C(=O)C=Cc3ccc(C(F)(F)F)cc3)[C@@H](Cc3ccccc3)C(=O)N(C)CCOCC(N)=O)cc2)CC1 [Example 213, (S)-N-[4-(4-Acetyl-piperazin-1-yl)-benzyl]-N-{1-[(2-carbamoylmethoxy-ethyl)-methyl-carbamoyl]-2-phenyl-ethyl}-3-(4-trifluoromethyl-phenyl)-acrylamide]
11 | 59 nM | CN(CCN(C)C(=O)[C@H](Cc1ccccc1)N(Cc1ccc(N2CCOCC2)cc1)C(=O)C=Cc1ccc(C(F)(F)F)cc1)Cc1ccc(N(C)CCO)cc1 [Example 255, (S)-N-(1-{[2-({4-[(2-Hydroxy-ethyl)-methyl-amino]-benzyl}-methyl-amino)-ethyl]-methyl-carbamoyl}-2-phenyl-ethyl)-N-(4-morpholin-4-yl-benzyl)-3-(4-trifluoromethyl-phenyl)-acrylamide]
12 | 156 nM | COCCN(C)C(=O)[C@H](Cc1ccccc1)N(Cc1ccc(-c2cncnc2)cc1)C(=O)C=Cc1csc(C)n1 [Example 122, (S)-N-{1-[(2-Methoxy-ethyl)-methyl-carbamoyl]-2-phenyl-ethyl}-3-(2-methyl-thiazol-4-yl)-N-(4-pyrimidin-5-yl-benzyl)-acrylamide]
13 | 324 nM | COCCN(C)C(=O)C(CN1C(=O)C(=O)c2ccccc21)N(Cc1ccc(-c2ccncc2)cc1)C(=O)C=Cc1ccc(C(F)(F)F)cc1 (racemic) [Example 283]
14 | 60 nM | Cc1nc(C)c(C=CC(=O)N(Cc2ccc(-c3ccncc3)cc2)[C@@H](Cc2ccccc2)C(=O)N2CCC(N(C)C)CC2)s1 [Example 22, (S)-N-[1-Benzyl-2-(4-dimethylamino-piperidin-1-yl)-2-oxo-ethyl]-3-(2,4-dimethyl-thiazol-5-yl)-N-(4-pyridin-4-yl-benzyl)-acrylamide]
15 | 247 nM | COCCN(C)C(=O)C(Cc1cnn(C)c1)N(Cc1ccc(-c2ccccn2)cc1)C(=O)C=Cc1ccc(C(F)(F)F)cc1 (racemic) [Example 164]
16 | 26 nM | COc1ccc(CN(C)CCN(C)C(=O)[C@H](Cc2ccccc2)N(Cc2ccc(N3CCN(C(C)=O)CC3)cc2)C(=O)C=Cc2ccc(C(F)(F)F)cc2)cn1 [Example 247, (S)-N-[4-(4-Acetyl-piperazin-1-yl)-benzyl]-N-[1-({2-[(6-methoxy-pyridin-3-ylmethyl)-methyl-amino]-ethyl}-methyl-carbamoyl)-2-phenyl-ethyl]-3-(4-trifluoromethyl-phenyl)-acrylamide]
17 | 102 nM | COCCN(C)C(=O)[C@H](Cc1ccccc1)N(Cc1ccc(-c2ccccn2)cc1)C(=O)C=Cc1nc(C)oc1C [Example 81, (S)-3-(2,5-Dimethyl-oxazol-4-yl)-N-{1-[(2-methoxy-ethyl)-methyl-carbamoyl]-2-phenyl-ethyl}-N-(4-pyridin-2-yl-benzyl)-acrylamide]
18 | 75 nM | CN(CCN(C)C(=O)[C@H](Cc1ccccc1)N(Cc1ccc(-c2ccccn2)cc1)C(=O)C=Cc1ccc(C(F)(F)F)cc1)Cc1ccc(Cl)s1 [Example 226, (S)-N-[1-({2-[(5-Chloro-thiophen-2-ylmethyl)-methyl-amino]-ethyl}-methyl-carbamoyl)-2-phenyl-ethyl]-N-(4-pyridin-2-yl-benzyl)-3-(4-trifluoromethyl-phenyl)-acrylamide]
19 | 430 nM | CN(C)CCN(Cc1ccccc1)C(=O)[C@H](Cc1ccccc1)N(Cc1ccc(-c2ccccn2)cc1)C(=O)C=Cc1ccc(C(F)(F)F)cc1 [Example 174]
20 | 1 nM | O=C([C@H](Cc1ccccc1)N(Cc1ccc(-c2cccnc2)cc1)C(=O)C=Cc1ccc(C(F)(F)F)nc1)N1CCC(Cc2ccccc2)CC1 [Example 47, (S)-N-[1-Benzyl-2-(4-benzyl-piperidin-1-yl)-2-oxo-ethyl]-N-(4-pyridin-3-yl-benzyl)-3-(6-trifluoromethyl-pyridin-3-yl)-acrylamide]
21 | 18 nM | CC(=O)N1CCN(c2ccc(CN(C(=O)C=Cc3ccc(C(F)(F)F)cc3)[C@@H](Cc3ccccc3)C(=O)N(C)CCOCC#N)cc2)CC1 [Example 211, (S)-N-[4-(4-Acetyl-piperazin-1-yl)-benzyl]-N-{1-[(2-cyanomethoxy-ethyl)-methyl-carbamoyl]-2-phenyl-ethyl}-3-(4-trifluoromethyl-phenyl)-acrylamide]
22 | 27 nM | CC(=O)N1CCN(c2ccc(CN(C(=O)C=Cc3ccc(C(F)(F)F)cc3)[C@@H](Cc3ccccc3)C(=O)N(C)CCN(C)Cc3ccc(O)cc3)cc2)CC1 [Example 238, (S)-N-[4-(4-Acetyl-piperazin-1-yl)-benzyl]-N-[1-({2-[(4-hydroxy-benzyl)-methyl-amino]-ethyl}-methyl-carbamoyl)-2-phenyl-ethyl]-3-(4-trifluoromethyl-phenyl)-acrylamide]
23 | < 8 nM | COCCN(C)C(=O)[C@H](Cc1ccccc1)N(Cc1ccc(-c2ccccn2)cc1)C(=O)C=Cc1ccc(OC)nc1 [Example 87, (S)-N-{1-[(2-Methoxy-ethyl)-methyl-carbamoyl]-2-phenyl-ethyl}-3-(6-methoxy-pyridin-3-yl)-N-(4-pyridin-2-yl-benzyl)-acrylamide]
24 | 8 nM | COCCN(C)C(=O)[C@H](Cc1ccccc1)N(Cc1ccc(-c2ccncc2)cc1)C(=O)C=Cc1ccc(OC)nc1 [Example 101, (S)-N-{1-[(2-Methoxy-ethyl)-methyl-carbamoyl]-2-phenyl-ethyl}-3-(6-methoxy-pyridin-3-yl)-N-(4-pyridin-4-yl-benzyl)-acrylamide]
25 | 282 nM | COCCN(C)C(=O)[C@H](Cc1ccccc1)N(Cc1ccc(-c2cccnc2)cc1)C(=O)C=Cc1cnc(C)n1C [Example 131, (S)-3-(2,3-Dimethyl-3H-imidazol-4-yl)-N-{1-[(2-methoxy-ethyl)-methyl-carbamoyl]-2-phenyl-ethyl}-N-(4-pyridin-3-yl-benzyl)-acrylamide]
26 | 34 nM | CN(C)C1CCN(C(=O)[C@H](Cc2ccccc2)N(Cc2ccc(-c3ccncc3)cc2)C(=O)C=Cc2ccc(C(F)(F)F)cn2)CC1 [Example 30, (S)-N-[1-Benzyl-2-(4-dimethylamino-piperidin-1-yl)-2-oxo-ethyl]-N-(4-pyridin-4-yl-benzyl)-3-(5-trifluoromethyl-pyridin-2-yl)-acrylamide]
